Experimental data: publication PMC9028714 (Journal of Personalized Medicine, 2022)

Key:
CYP3A = system: CYP3A; set-up: method as in PMID 32157630; settings: cited from earlier work
[1] = Multivariable linear regression: genotype of CYP3A and P-gp vs AUC0–6h or C2h of apixaban and rivaroxaban; format: in vivo, human; settings: for observed variability of AUC0–6h explained by the model: Table 4; for C2h, β (CI95%): Age 65–74 years / C2h, β (CI95%): Age 75–84 years / C2h, β (CI95%): Age >85 years: reference category <65 years; for C2h, β (CI95%): Gender, Female: reference category Male; for C2h, β (CI95%): Genotype ABCB1 1236C>T, Heterozygous for mutation / C2h, β (CI95%): Genotype ABCB1 1236C>T, Homozygous for mutation / C2h, β (CI95%): Genotype ABCB1 2677G>T, Heterozygous for mutation / C2h, β (CI95%): Genotype ABCB1 2677G>T, Homozygous for mutation / C2h, β (CI95%): Genotype ABCB1 3435C>T, Heterozygous for mutation / C2h, β (CI95%): Genotype ABCB1 3435C>T, Homozygous for mutation: reference category No mutation
Procedure: Genotyping of selected CYP3A4/5 and ABCB1 polymorphisms was carried out on QuantStudio^TM 12K Flex Real-Time (RT) PCR System with TaqMan® OpenArray^TM genotyping assays and TaqMan® MGB Probe Validated Single Nucleotide Polymorphism (SNP) Genotyping Assays (Applied Biosystems, Thermo Fisher Scientific, Waltham, MA, USA), respectively. These methods were previously described in detail in the literature. […] All SNPs of CYP3A4/5 integrated in the TaqMan® OpenArray^TM PGx Express Panel (Thermo Fisher Scientific, Waltham, MA, USA) were considered and are listed in Supplementary Table S1. Finally, raw genotyping data were processed with the TaqMan® Genotyper software (Thermo Fisher Scientific, Waltham, MA, USA) according to the manufacturer’s protocol.
AlleleTyper™ Software and translational tables (Thermo Fisher Scientific and PharmGKB, Stanford, CA, USA) were used to translate genetic pattern information from genotyping (SNPs) to pharmacogenomic gene-level star (*) nomenclature. Allele and genotype frequencies were determined, and Hardy–Weinberg equilibrium (HWE) was tested. […] The CYP3A activity predicted from the genotype combines the effects of CYP3A4 and CYP3A5 SNPs on enzyme activities, as listed in the PharmVar and PharmGKB databases. Patients were classified into poor metabolizer (PM), intermediate metabolizer (IM), normal metabolizer (NM), and ultra-rapid metabolizer (UM) according to the classification described by Andreu et al..
Missing data were excluded from the analysis.

[2] = Multivariable linear regression: phenotypic activity of CYP3A and P-gp vs AUC0–6h or C2h of apixaban and rivaroxaban; settings: for observed variability of AUC0–6h predicted by the model: Table 3; for C2h, β (CI95%): Age 65–74 years / C2h, β (CI95%): Age 75–84 years / C2h, β (CI95%): Age >85 years: reference category <65 years; for C2h, β (CI95%): Gender, Female: reference category Male;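 as to all read-outs here: outcome C2h is the drug concentration 2 h post-dose, with regression coefficient errors from a sandwich estimator after a Breusch–Pagan heteroscedasticity check and missing data excluded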
Procedure: Dependent variables (outcomes) for both drugs were defined as being the values of AUC0–6h and concentration 2 h after drug administration (C2h). […] The Breusch–Pagan test was used to detect a potential heteroscedasticity issue, and consistent standard errors of the regression coefficients were assessed with a sandwich estimator. […] In addition, association between dependent variables and predicted activity of CYP3A and P-gp from genotype were also adjusted for a pre-specified set of potential confounding factors (gender, CrCl, BMI, age, dose). Spearman’s correlation was used to assess the concordance between genotype and phenotype of CYP3A and P-gp. Missing data were excluded from the analysis.

[3] = Apixaban and rivaroxaban capillary blood concentrations (DBS, LC-MS/MS) in hospitalized patients; format: in vivo, human; settings: concentrations normalized by the dosing regimen
Procedure: Comedications were systematically screened to record patients taking CYP3A4/5 and/or P-gp inhibitors and/or inducers using the Lexicomp drug interaction analysis tool and the Geneva Table of CYP substrates, inhibitors, and inducers. Adequacy of dosage was assessed according to the SmPC criteria (indication, age, CrCl, and weight).
The DBS concentrations were determined using a validated LC-MS/MS method.
After agitation during 10 min, 10 μL of the supernatant was injected into the LC-MS/MS system. Separation was performed with a Kinetex® C18 column (50 × 2.1 mm, 2.6 µm) from Phenomenex (Brechbühler, Schlieren, Switzerland) under gradient conditions. The mobile phase was composed of formic acid 0.1% in water and in acetonitrile. The total run time was 7 min. Detection of analytes was obtained in positive mode using multiple reaction monitoring (MRM). Instrument parameters were as follows: curtain gas = 40 psi, collision gas = high, IonSpray voltage = […], temperature = 550 °C, ion source gas 1 = 60 psi, ion source gas 2 = 60 psi.

CYP2J2 and CYP1A2 = system: CYP2J2 and CYP1A2; set-up: method as in PMID 32157630; settings: cited from earlier work
[4] = set-up: method as in PMID 33808739, PMID 30223963; settings: cited from earlier work
CYP2J2 = system: CYP2J2; set-up: method as in PMID 32157630; settings: cited from earlier work
[5] = genotype model, Table S4, reference category 2.5 mg bid
[6] = genotype model, Table S4, reference category IM
[7] = phenotype model, Table S3, reference category 2.5 mg bid
[8] = genotype model, Table S4, reference category 10 mg od
[9] = phenotype model, Table S3, reference category 10 mg od

Structure (SMILES) | share of metabolism CYP3A is responsible for (CYP3A) | observed variability of AUC0–6h explained by the model [1] | C2h, β (CI95%): ALAT, per unit ([1]; genotype model, Table S4) | C2h, β (CI95%): CrCl, per unit ([1]; genotype model, Table S4) | C2h, β (CI95%): Intercept ([1]; genotype model, Table S4) | C2h, β (CI95%): Age 65–74 years ([1]; genotype model, Table S4) | C2h, β (CI95%): Age 75–84 years ([1]; genotype model, Table S4) | C2h, β (CI95%): Age >85 years ([1]; genotype model, Table S4) | C2h, β (CI95%): Predicted phenotype from genotype CYP3A, PM [1, 6] | C2h, β (CI95%): Gender, Female ([1]; genotype model, Table S4) | C2h, β (CI95%): Genotype ABCB1 1236C>T, Heterozygous for mutation ([1]; genotype model, Table S4) | C2h, β (CI95%): Genotype ABCB1 1236C>T, Homozygous for mutation ([1]; genotype model, Table S4) | C2h, β (CI95%): Genotype ABCB1 2677G>T, Heterozygous for mutation ([1]; genotype model, Table S4) | C2h, β (CI95%): Genotype ABCB1 2677G>T, Homozygous for mutation ([1]; genotype model, Table S4) | C2h, β (CI95%): Genotype ABCB1 3435C>T, Heterozygous for mutation ([1]; genotype model, Table S4) | C2h, β (CI95%): Genotype ABCB1 3435C>T, Homozygous for mutation ([1]; genotype model, Table S4) | observed variability of AUC0–6h predicted by the model ([2]; phenotype model) | C2h, β (CI95%): ALAT, per unit ([2]; phenotype model, Table S3) | C2h, β (CI95%): CrCl, per unit ([2]; phenotype model, Table S3) | C2h, β (CI95%): Intercept ([2]; phenotype model, Table S3) | also measured
COc1ccc(-n2nc(C(N)=O)c3c2C(=O)N(c2ccc(N4CCCCC4=O)cc2)CC3)cc1 [Apixaban] | 15% | approximately 40% | 0.07 (−0.17 to 0.32) | −0.48 (−0.75 to −0.21) | 80.68 (42.43 to 118.93) | 5.10 (−15.52 to 25.71) | 9.29 (−10.54 to 29.12) | 14.31 (−10.69 to 39.31) | −18.61 (−36.00 to −1.21) | 5.44 (−5.98 to 16.87) | −1.26 (−23.09 to 20.57) | −9.35 (−36.76 to 18.06) | 8.08 (−14.86 to 31.01) | 9.94 (−17.81 to 37.69) | −7.52 (−24.64 to 9.60) | −2.70 (−18.04 to 12.65) | 47% | 0.06 (−0.13 to 0.25) | −0.40 (−0.67 to −0.13) | −0.46 (−51.98 to 51.05) | C2h, β (CI95%): Dose 5 mg bid [1, 5]: 51.17 (37.82 to 64.51); C2h, β (CI95%): Dose 10 mg bid [1, 5]: 113.17 (81.73 to 145.52); decrease in CrCl with an effect comparable to P-gp phenoconversion NM to PM ([2]; according to the AUC0–6h model): 37.6 mL/min/1.73 m^2; C2h, β (CI95%): MRmidazolam, per log10 ([2]; phenotype model, Table S3): 6.07 (−8.08 to 20.22); C2h, β (CI95%): Weight, per kg ([2]; phenotype model, Table S3): −0.02 (−0.37 to 0.33); C2h, β (CI95%): Dose 5 mg bid [2, 7]: 51.97 (41.16 to 62.78); C2h, β (CI95%): Dose 10 mg bid [2, 7]: 116.28 (80.44 to 152.12); C2h, β (CI95%): Age 65–74 years ([2]; phenotype model, Table S3): 8.61 (−10.00 to 27.23); C2h, β (CI95%): Age 75–84 years ([2]; phenotype model, Table S3): 13.69 (−5.59 to 32.97); C2h, β (CI95%): Age >85 years ([2]; phenotype model, Table S3): 17.73 (−3.37 to 38.82); C2h, β (CI95%): Gender, Female ([2]; phenotype model, Table S3): 4.07 (−5.94 to 14.08); inter-individual CV of blood concentrations ([3]; administered bid): 47.7%; contribution of CYP2J2 and CYP1A2 together to metabolism (CYP2J2 and CYP1A2): 6%; excreted by the kidney [4]: 25–30%
O=C(NC[C@H]1CN(c2ccc(N3CCOCC3=O)cc2)C(=O)O1)c1ccc(Cl)s1 [Rivaroxaban] | 18% | ~18% | 0.08 (−0.06 to 0.22) | −0.14 (−0.61 to 0.32) | −10.99 (−88.50 to 66.51) | 24.56 (8.41 to 40.71) | 25.66 (−1.56 to 52.88) | 19.86 (−9.35 to 49.08) | 24.72 (−8.3 to 57.73) | 2.56 (−12.47 to 17.59) | −16.43 (−46.63 to 13.77) | −1.63 (−39.30 to 36.03) | 23.36 (−8.85 to 55.56) | 16.54 (−19.70 to 52.77) | −8.53 (−32.11 to 15.04) | −12.17 (−32.48 to 8.14) | 27% | 0.05 (−0.14 to 0.23) | −0.017(−0.49 to 0.34) | −77.74 (−161.1 to 5.63) | contribution of CYP2J2 to total clearance (CYP2J2): 14%; C2h, β (CI95%): Weight, per kg ([1]; genotype model, Table S4): 0.46 (0.04 to 0.88); C2h, β (CI95%): Dose 15 mg bid [1, 8]: 60.99 (29.95 to 92.04); C2h, β (CI95%): Dose 15 mg od [1, 8]: 29.53 (−2.56 to 61.63); C2h, β (CI95%): Dose 20 mg od [1, 8]: 57.40 (22.52 to 92.28); C2h, β (CI95%): Predicted phenotype from genotype CYP3A, NM [1, 6]: 20.74 (1.20 to 40.28); C2h, β (CI95%): MRmidazolam, per log10 ([2]; phenotype model, Table S3): −8.35 (−30.17 to 13.47); C2h, β (CI95%): Weight, per kg ([2]; phenotype model, Table S3): 0.23 (−0.18 to 0.63); C2h, β (CI95%): Dose 15 mg bid [2, 9]: 41.5 (0.24 to 82.75); C2h, β (CI95%): Dose 15 mg od [2, 9]: 18.95 (−21.77 to 59.66); C2h, β (CI95%): Dose 20 mg od [2, 9]: 39.98 (−4.47 to 84.44); C2h, β (CI95%): Age 65–74 years ([2]; phenotype model, Table S3): 15.15 (−0.06 to 30.37); C2h, β (CI95%): Age 75–84 years ([2]; phenotype model, Table S3): 10.55 (−12.65 to 33.75); C2h, β (CI95%): Age >85 years ([2]; phenotype model, Table S3): 7.97 (−15.72 to 31.67); C2h, β (CI95%): Gender, Female ([2]; phenotype model, Table S3): 1.91 (−13.03 to 16.84); inter-individual CV of blood concentrations ([3]; administered bid): 41.5%; inter-individual CV of blood concentrations ([3]; administered od): 51.8%; excreted by the kidney [4]: 66%
